Assay results reported in patent US12655116B2, “Substituted isophthalic acid diamides” (Bayer Aktiengesellschaft, priority 2020, dated 2026).

Columns and labels:
DIGSA [1] = assay: Post-emergence herbicidal action against DIGSA; assay type: in vivo, Digitaria sanguinalis; conditions: for Post-emergence action against DIGSA: 20 g/ha
In short: (§1)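 Sandy loam, greenhouse; treatment 2–3 weeks after sowing, one-leaf stage. Aqueous suspension or emulsion from WP/EC sprayed on foliage (600–800 l/ha, 0.2% wetting agent). Readout: visual % action, ~3 weeks.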

VIOTR [2] = assay: Pre-emergence herbicidal action against VIOTR; assay type: in vivo, Viola tricolor
In short: (§2)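 Seeds sown in sandy loam, soil-covered; compound sprayed on soil surface pre-emergence. Application: WP/EC, 600–800 l/ha, 0.2% wetting agent. Readout: visual % damage at 3 weeks.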

AMARE [3] = assay: Post-emergence herbicidal action against AMARE; assay type: in vivo, Amaranthus retroflexus; conditions: 20 g/ha, visual assessment about 3 weeks after treatment, 100% = plants have died, 0% = like control plants
In short: as §1

ABUTH [4] = assay: Pre-emergence herbicidal action against ABUTH; assay type: in vivo, Abutilon theophrasti; conditions: for Pre-emergence action against ABUTH (herbicidal activity): 80 g/ha, scored visually after 3 weeks vs untreated controls (100% = plants have died, 0% = like control plants)
In short: as §2

DIGSA [5] = assay: Pre-emergence herbicidal action against DIGSA; assay type: in vivo, Digitaria sanguinalis
In short: as §2

MATIN = assay: Pre-emergence herbicidal action against MATIN; assay type: in vivo, Matricaria inodora
In short: as §2

SETVI [6] = assay: Post-emergence herbicidal action against SETVI; assay type: in vivo, Setaria viridis; conditions: dosage 20 g/ha
In short: as §1

ECHCG [7] = assay: Pre-emergence herbicidal action against ECHCG; assay type: in vivo, Echinochloa crus-galli
In short: as §2

ALOMY [8] = assay: Pre-emergence herbicidal action against ALOMY; assay type: in vivo, Alopecurus myosuroides; conditions: 80 g/ha, pre-emergence, scored visually after 3 weeks vs untreated controls (100% = plants have died, 0% = like control plants)
In short: as §2

ALOMY [9] = assay: Post-emergence herbicidal action against ALOMY; assay type: in vivo, Alopecurus myosuroides; conditions: dosage 20 g/ha, visual assessment about 3 weeks after treatment vs untreated controls
In short: as §1

ABUTH [10] = assay: Post-emergence herbicidal action against ABUTH; assay type: in vivo, Abutilon theophrasti; conditions: visual assessment about 3 weeks after treatment vs untreated controls
In short: as §1

ECHCG [11] = assay: Post-emergence herbicidal action against ECHCG; assay type: in vivo, Echinochloa crus-galli
In short: as §1

VERPE [12] = assay: Post-emergence herbicidal action against VERPE; assay type: in vivo, Veronica persica; conditions: 20 g/ha
In short: as §1

PHBPU [13] = assay: Post-emergence herbicidal action against PHBPU; assay type: in vivo, Pharbitis purpurea
In short: as §1

PHBPU [14] = assay: Pre-emergence herbicidal action against PHBPU; assay type: in vivo, Pharbitis purpurea; conditions: dosage 80 g/ha
In short: as §2

AMARE [15] = assay: Pre-emergence herbicidal action against AMARE; assay type: in vivo, Amaranthus retroflexus
In short: as §2

SETVI [16] = assay: Pre-emergence herbicidal action against SETVI; assay type: in vivo, Setaria viridis; conditions: dosage 80 g/ha
In short: as §2

AVEFA = assay: Pre-emergence herbicidal action against AVEFA; assay type: in vivo, Avena fatua; conditions: 80 g/ha, pre-emergence
In short: as §2

VERPE [17] = assay: Pre-emergence herbicidal action against VERPE; assay type: in vivo, Veronica persica; conditions: dosage 80 g/ha
In short: as §2

VIOTR [18] = assay: Post-emergence herbicidal action against VIOTR; assay type: in vivo, Viola tricolor; conditions: 20 g/ha
In short: as §1

[19] = 20 g/ha, scored visually after 3 weeks vs untreated controls, 100% = plants have died, 0% = like control plants
[20] = 80 g/ha, scored visually after 3 weeks vs untreated controls (100% = plants have died, 0% = like control plants)

Row | SMILES | Post-emergence action against DIGSA (DIGSA [1]) | Pre-emergence action against VIOTR in % (VIOTR [2]; dosage 80 g/ha) | Post-emergence action at 20 g/ha against AMARE in % (AMARE [3]) | Pre-emergence action against ABUTH (herbicidal activity) (ABUTH [4]) | Pre-emergence action against DIGSA in % (DIGSA [5]; dosage 20 g/ha) | Pre-emergence action against DIGSA in % (DIGSA [5]; dosage 80 g/ha) | Pre-emergence action against MATIN in % (MATIN; dosage 20 g/ha) | Pre-emergence action against MATIN in % (MATIN; dosage 80 g/ha) | Pre-emergence action against ECHCG in % (ECHCG [7]; 80 g/ha) | Pre-emergence action against ALOMY (herbicidal activity) (ALOMY [8]) | Post-emergence action against ALOMY in % (ALOMY [9]) | Post-emergence action against ECHCG in % (ECHCG [11]; dosage 20 g/ha) | Post-emergence action against VERPE in % (VERPE [12]) | Post-emergence action against PHBPU in % (PHBPU [13]; dosage 20 g/ha) | Pre-emergence action against PHBPU in % (PHBPU [14]) | Pre-emergence action against AMARE in % (AMARE [15]; [19]) | Pre-emergence action against AMARE in % (AMARE [15]; [20]) | Pre-emergence action against SETVI in % (SETVI [16]) | also measured
1 | COCCNC(=O)c1c(C(F)F)ccc(C(=O)Nc2nnnn2C)c1Cl [Example 1-156] | 90% | 100% | 90% | 100% | 100% | 100% | 90% | 100% | 100% | 90% | 80% | 90% | 80% | 90% | 80% | 100% | 100% | 100% | Post-emergence action against SETVI in % (SETVI [6]): 80%; Post-emergence action against ABUTH in % (ABUTH [10]; dosage 5 g/ha): 90%; Post-emergence action against ABUTH in % (ABUTH [10]; dosage 20 g/ha): 90%; Post-emergence action against ECHCG in % (ECHCG [11]; dosage 5 g/ha): 80%
2 | Cn1nnnc1NC(=O)c1ccc(C(F)F)c(C(=O)NCC2CC2)c1Br [Example 1-228] | 90% | 100% | 90% | 100% | 100% | 100% | 80% | 100% | 100% | 90% | 90% | 80% | 90% | 80% | 90% | 100% | 100% | 100% | Post-emergence action against DIGSA in % (DIGSA [1]; 5 g/ha): 90%; Pre-emergence action against VIOTR in % (VIOTR [2]; dosage 20 g/ha): 90%; Pre-emergence action against AVEFA in % (AVEFA): 90%; Pre-emergence action against ABUTH (herbicidal activity in percent) (ABUTH [4]; dosage 20 g/ha, scored visually after 3 weeks vs untreated controls, 100% = plants have died, 0% = like control plants): 100%; Pre-emergence action against VERPE in % (VERPE [17]): 90%; Pre-emergence action against ECHCG in % (ECHCG [7]; 20 g/ha): 90%; Post-emergence action against VIOTR in % (VIOTR [18]): 80%; Post-emergence action against PHBPU in % (PHBPU [13]; dosage 5 g/ha): 80%
